# Experimental data from patent US9790218B2, “Small molecule activators of calcium-activated chloride channels and methods of use” (The Regents of the University of California, priority 2011, dated 2017).
# Columns and labels:
# TMEM16A = target: T1, TMEM16A (Homo sapiens, UniProt Q5XXA6, DEL476-501); assay: Fluorescence plate reader assay of TMEM16A-mediated I^− influx (YFP halide sensor); format: cell-based
# T1 construct: expressed in transfected cells
# T1 sequence (Q5XXA6 with tags, fused parts or gaps isoform Q5XXA6-5 DEL539-564): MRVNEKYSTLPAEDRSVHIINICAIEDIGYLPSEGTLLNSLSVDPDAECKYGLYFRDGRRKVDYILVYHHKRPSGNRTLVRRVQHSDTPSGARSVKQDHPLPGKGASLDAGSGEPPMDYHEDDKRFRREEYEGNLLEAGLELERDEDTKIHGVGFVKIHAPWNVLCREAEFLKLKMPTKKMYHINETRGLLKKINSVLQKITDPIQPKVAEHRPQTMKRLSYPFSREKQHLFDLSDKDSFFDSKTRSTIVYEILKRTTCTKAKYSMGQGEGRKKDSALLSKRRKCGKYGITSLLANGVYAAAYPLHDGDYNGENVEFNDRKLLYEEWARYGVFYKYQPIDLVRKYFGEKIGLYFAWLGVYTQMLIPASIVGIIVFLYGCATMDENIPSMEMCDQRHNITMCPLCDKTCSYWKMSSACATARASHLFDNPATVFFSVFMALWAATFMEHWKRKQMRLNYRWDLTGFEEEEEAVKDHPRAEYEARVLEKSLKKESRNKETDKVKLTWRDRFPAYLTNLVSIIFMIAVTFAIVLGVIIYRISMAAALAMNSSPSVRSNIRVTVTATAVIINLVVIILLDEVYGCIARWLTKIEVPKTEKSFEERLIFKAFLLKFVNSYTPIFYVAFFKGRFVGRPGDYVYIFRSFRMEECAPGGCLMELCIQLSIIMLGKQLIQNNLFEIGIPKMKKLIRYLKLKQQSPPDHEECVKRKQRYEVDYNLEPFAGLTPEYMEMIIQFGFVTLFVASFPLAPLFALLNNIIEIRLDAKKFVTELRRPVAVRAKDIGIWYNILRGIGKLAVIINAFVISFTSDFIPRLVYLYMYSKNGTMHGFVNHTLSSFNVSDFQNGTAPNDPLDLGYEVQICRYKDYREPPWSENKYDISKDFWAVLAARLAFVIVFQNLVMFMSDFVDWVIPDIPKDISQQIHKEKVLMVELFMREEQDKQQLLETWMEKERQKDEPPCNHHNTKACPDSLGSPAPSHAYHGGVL
# Method: FRT cells were stably transfected with human TMEM16A (TMEM16A(abc), cDNA provided by Dr. Luis Galietta, Gaslini Institute, Genoa, Italy) and the halide sensor YFP-H148Q/1152L/F46L. Cells were plated in 96-well black-walled microplates (Corning Inc., Corning, N.Y.) at a density of 20,000 cells per well in Coon's modified F12 medium supplemented with 5% fetal calf serum, 2 mM L-glutamine, 100 U/mL penicillin and 100 μg/mL streptomycin. The human submandibular cell line A253 (ATCC HTB 41) was cultured in complete McCoy's 5A medium supplemented with 10% fetal bovine serum, 100 U/mL penicillin and 100 μg/mL streptomycin.
# TMEM16A activators were identified from screening of ˜110,000 synthetic drug-like compounds, purified natural products and approved/investigational drugs. The cell-based screen employs FRT cells coexpressing human TMEM16A and the I^−-sensing yellow fluorescent protein YFP-H148Q/1152L/F46L. FRT cells were chosen because of their low basal I^− and Cl^− transport, rapid growth on uncoated plastic, strong stable expression of transfected proteins, and formation of tight junctions for measurements of transepithelial short-circuit current (Ma et al., supra).
# High-throughput screening was done using an automated screening platform (Beckman) equipped with FluoStar fluorescence plate readers (BMG Lab Technologies, Durham, N.C.) as described (Ma et al., supra). Each well of a 96-well plate was washed 3 times with PBS (200 μL/wash), leaving 50 μL PBS. Test compounds (0.5 μL) were added to each well at […]. After 10 min, 96-well plates were transferred to a plate reader for fluorescence assay. Each well was assayed individually for TMEM16A-mediated I^− influx by recording fluorescence continuously (400 ms per point) for 2 s (baseline), then 50 μL of a 140 mM I^− solution was added. The initial rate of I^− influx was computed from fluorescence data by non-linear regression.
# As diagrammed in FIG. 1A, test compounds at 25 μM final concentration were added 10 min prior to I^− addition. The 10 min incubation was chosen to allow for compound transport into cytoplasm and to minimize false positives from compounds that elevate cytoplasmic Ca^2+ transiently. Fluorescence from individual wells of 96-well plates was measured just prior to and for 6 s after I^− addition for computation of initial I^− influx rate.
# [1] = system: cytoplasmic Ca^2+ in FRT cells; assay: Cytoplasmic calcium measured by Fluo-4 fluorescence; format: cell-based; conditions: 10 μM activator
# Method: FIG. 2A-E. Characterization of TMEM16A activators. FIG. 2A. Cytoplasmic calcium measured by Fluo-4 fluorescence. 100 μM ATP (gray line) or 10 μM of indicated TMEM16A activators were added at the arrow. FIG. 2B. Apical membrane current measured in TMEM16A-expressing FRT cells in the presence of a transepithelial chloride gradient and after basolateral membrane permeabilization. […] T16Ainh-A01 (10 μM) added where indicated. […] (right) Concentration-activation data summary (mean±S.E., n=4-6). FIG. 2C. Synergistic effect of Eact and Fact. (left and center) Representative current traces showing synergy. (right) Data summary of low doses of TMEM16A activation (mean±S.E., n=5, * P<0.05). FIG. 2D. Apical membrane current measured in FRT cells transfected with mouse TMEM16A or TMEM16B. FIG. 2E. Effect of Eact and Fact on CFTR and ENaC. (left) FRT cells expressing wild type CFTR and YFP indicator were pretreated for 5 min with 10 μM Eact and Fact. Forskolin (10 μM) added as indicated. (right) HBE cells were pre-treated for 5 min with 10 μM Eact and Fact, with amiloride (10 μM) added as indicated.
# FRT cells in 96-well black-walled microplates were loaded with Fluo-4 NW per the manufacturer's protocol (Invitrogen, Carlsbad, Calif.). Fluo-4 fluorescence was measured with a FLUOstar Optima fluorescence plate reader equipped with syringe pumps and custom Fluo-4 excitation/emission filters (485/538 nm).
smiles,measurement,setting,value
"O=C(Nc1ccc(Br)cc1)c1cccc(-n2cnnn2)c1 [Fact, N-(4-bromophenyl)-3-(1H-tetrazol-1-yl)benzamide]",EC50,TMEM16A,37 µM
same,"TMEM16A conductance, F class SAR",TMEM16A; synthesized F class analogs,increased TMEM16A conductance
same,effect on cytoplasmic Ca^2+,[1],did not elevate Ca^2+
